{"source": "patent US10329309B2", "about": "“3-(3H-imidazo[4,5-B]pyridin-2-yl)-1H-pyrazolo[4,3-B]pyridines and therapeutic uses thereof” (Samumed, LLC, priority 2015, dated 2019)", "test_system": "IL-6 (THP-1 cells)", "test": "Inhibition of IL-6 in LPS-stimulated THP-1 monocytes (HTRF)", "format": "cell-based", "conditions": "Homo sapiens; for EC50: LPS 500 ng/mL, IL-6 by HTRF; for inhibition at 10 µM: LPS stimulated, IL-6, at 10 μM, read-out: percent inhibition at 10 μM (given for EC50 of >10 μM)", "in_short": "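THP-1 cells, serum-starved in 1% FBS for 24 h, were pre-incubated 2 h with compound (10-point, 1:3 from 10 μM, 0.1% DMSO), then stimulated with 500 ng/mL LPS for 22 h at 37 °C. IL-6 was quantified by HTRF 665/620 ratio. EC50 was fitted from DMSO-normalized data; above 10 μM, % inhibition at 10 μM is given.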"}
{"molecule": "CS(=O)(=O)NCc1cc(F)cc(-c2ccnc3[nH]c(-c4n[nH]c5ccc(-c6cncc(NC(=O)c7ccccc7)c6)nc45)nc23)c1", "note": "[Compound 487, N-(5-(3-(7-(3-Fluoro-5-(methylsulfonamidomethyl)phenyl)-3H-imidazo[4,5-b]pyridin-2-yl)-1H-pyrazolo[4,3-b]pyridin-5-yl)pyridin-3-yl)benzamide]", "values": [{"measurement": "EC50", "result": "> 10", "unit": "µM"}, {"measurement": "inhibition at 10 µM", "result": 0, "unit": "%"}]}
{"molecule": "CS(=O)(=O)NCc1cc(F)cc(-c2ccnc3[nH]c(-c4n[nH]c5ccc(-c6cncnc6)nc45)nc23)c1", "note": "[Compound 503, N-(3-Fluoro-5-(2-(5-(pyrimidin-5-yl)-1H-pyrazolo[4,3-b]pyridin-3-yl)-3H-imidazo[4,5-b]pyridin-7-yl)benzyl)methanesulfonamide]", "values": [{"measurement": "EC50", "result": "> 10", "unit": "µM"}, {"measurement": "inhibition at 10 µM", "result": 29.6, "unit": "%"}]}
{"molecule": "c1cncc(-c2ccnc3[nH]c(-c4n[nH]c5ccc(-c6cncc(OC7CCCCC7)c6)nc45)nc23)c1", "note": "[Compound 559, 5-(5-(Cyclohexyloxy)pyridin-3-yl)-3-(7-(pyridin-3-yl)-3H-imidazo[4,5-b]pyridin-2-yl)-1H-pyrazolo[4,3-b]pyridine]", "values": [{"measurement": "EC50", "result": "> 10", "unit": "µM"}, {"measurement": "inhibition at 10 µM", "result": 31.6, "unit": "%"}]}
{"molecule": "Oc1cncc(-c2ccc3[nH]nc(-c4nc5c(-c6cccnc6)ccnc5[nH]4)c3n2)c1", "note": "[Compound 565, 5-(3-(7-(Pyridin-3-yl)-3H-imidazo[4,5-b]pyridin-2-yl)-1H-pyrazolo[4,3-b]pyridin-5-yl)pyridin-3-ol]", "values": [{"measurement": "EC50", "result": 9.48, "unit": "µM"}]}
{"molecule": "c1cc(-c2ccnc3[nH]c(-c4n[nH]c5ccc(-c6cncc(OC7CCNCC7)c6)nc45)nc23)ccn1", "note": "[Compound 576, 5-(5-(Piperidin-4-yloxy)pyridin-3-yl)-3-(7-(pyridin-4-yl)-3H-imidazo[4,5-b]pyridin-2-yl)-1H-pyrazolo[4,3-b]pyridine]", "values": [{"measurement": "EC50", "result": "> 10", "unit": "µM"}, {"measurement": "inhibition at 10 µM", "result": 38.1, "unit": "%"}]}
{"molecule": "c1ccc(COc2cncc(-c3ccc4[nH]nc(-c5nc6c(-c7ccncc7)ccnc6[nH]5)c4n3)c2)cc1", "note": "[Compound 582, 5-(5-(Benzyloxy)pyridin-3-yl)-3-(7-(pyridin-4-yl)-3H-imidazo[4,5-b]pyridin-2-yl)-1H-pyrazolo[4,3-b]pyridine]", "values": [{"measurement": "EC50", "result": "> 10", "unit": "µM"}, {"measurement": "inhibition at 10 µM", "result": 3.2, "unit": "%"}]}
{"molecule": "c1cc(-c2ccnc3[nH]c(-c4n[nH]c5ccc(-c6cnccn6)nc45)nc23)ccn1", "note": "[Compound 584, 5-(Pyrazin-2-yl)-3-(7-(pyridin-4-yl)-3H-imidazo[4,5-b]pyridin-2-yl)-1H-pyrazolo[4,3-b]pyridine]", "values": [{"measurement": "EC50", "result": "> 10", "unit": "µM"}, {"measurement": "inhibition at 10 µM", "result": 22, "unit": "%"}]}
{"molecule": "O=C(CC1CCNCC1)Nc1cncc(-c2ccc3[nH]nc(-c4nc5c(-c6ccccn6)ccnc5[nH]4)c3n2)c1", "note": "[Compound 593, 2-(Piperidin-4-yl)-N-(5-(3-(7-(pyridin-2-yl)-3H-imidazo[4,5-b]pyridin-2-yl)-1H-pyrazolo[4,3-b]pyridin-5-yl)pyridin-3-yl)acetamide]", "values": [{"measurement": "EC50", "result": "> 10", "unit": "µM"}, {"measurement": "inhibition at 10 µM", "result": 41.8, "unit": "%"}]}
{"molecule": "c1cc(N2CCCCC2)c2nc(-c3n[nH]c4ccc(-c5cncc(OCCN6CCCC6)c5)nc34)[nH]c2n1", "note": "[Compound 610, 3-(7-(Piperidin-1-yl)-3H-imidazo[4,5-b]pyridin-2-yl)-5-(5-(2-(pyrrolidin-1-yl)ethoxy)pyridin-3-yl)-1H-pyrazolo[4,3-b]pyridine]", "values": [{"measurement": "EC50", "result": "> 10", "unit": "µM"}, {"measurement": "inhibition at 10 µM", "result": 25.3, "unit": "%"}]}
{"molecule": "COc1cncc(-c2ccc3[nH]nc(-c4nc5c(N6CCCCC6)ccnc5[nH]4)c3n2)c1", "note": "[Compound 612, 5-(5-Methoxypyridin-3-yl)-3-(7-(piperidin-1-yl)-3H-imidazo[4,5-b]pyridin-2-yl)-1H-pyrazolo[4,3-b]pyridine]", "values": [{"measurement": "EC50", "result": "> 10", "unit": "µM"}, {"measurement": "inhibition at 10 µM", "result": 44.6, "unit": "%"}]}
{"molecule": "Cc1cn(-c2ccnc3[nH]c(-c4n[nH]c5ccc(C6=CCNCC6)nc45)nc23)cn1", "note": "[Compound 618, 3-(7-(4-Methyl-1H-imidazol-1-yl)-3H-imidazo[4,5-b]pyridin-2-yl)-5-(1,2,3,6-tetrahydropyridin-4-yl)-1H-pyrazolo[4,3-b]pyridine]", "values": [{"measurement": "EC50", "result": 1.55, "unit": "µM"}]}
{"molecule": "Cc1cn(-c2ccnc3[nH]c(-c4n[nH]c5ccc(-c6cncc(N7CC(N)C7)n6)nc45)nc23)cn1", "note": "[Compound 622, 1-(6-(3-(7-(4-Methyl-1H-imidazol-1-yl)-3H-imidazo[4,5-b]pyridin-2-yl)-1H-pyrazolo[4,3-b]pyridin-5-yl)pyrazin-2-yl)azetidin-3-amine]", "values": [{"measurement": "EC50", "result": 0.92, "unit": "µM"}]}
{"molecule": "Cc1cn(-c2ccnc3[nH]c(-c4n[nH]c5ccc(-c6cncc(OCCN(C)C)c6)nc45)nc23)cn1", "note": "[Compound 627, N,N-Dimethyl-2-((5-(3-(7-(4-methyl-1H-imidazol-1-yl)-3H-imidazo[4,5-b]pyridin-2-yl)-1H-pyrazolo[4,3-b]pyridin-5-yl)pyridin-3-yl)oxy)ethan-1-amine]", "values": [{"measurement": "EC50", "result": 0.404, "unit": "µM"}]}
{"molecule": "CN1CCN(c2ccnc3[nH]c(-c4n[nH]c5ccc(-c6cncc(OC7CCCCC7)c6)nc45)nc23)CC1", "note": "[Compound 639, 5-(5-(Cyclohexyloxy)pyridin-3-yl)-3-(7-(4-methylpiperazin-1-yl)-3H-imidazo[4,5-b]pyridin-2-yl)-1H-pyrazolo[4,3-b]pyridine]", "values": [{"measurement": "EC50", "result": "> 10", "unit": "µM"}, {"measurement": "inhibition at 10 µM", "result": 33.5, "unit": "%"}]}
{"molecule": "CN1CCN(c2ccnc3[nH]c(-c4n[nH]c5ccc(-c6cnccn6)nc45)nc23)CC1", "note": "[Compound 648, 3-(7-(4-Methylpiperazin-1-yl)-3H-imidazo[4,5-b]pyridin-2-yl)-5-(pyrazin-2-yl)-1H-pyrazolo[4,3-b]pyridine]", "values": [{"measurement": "EC50", "result": "> 10", "unit": "µM"}, {"measurement": "inhibition at 10 µM", "result": 9.9, "unit": "%"}]}
{"molecule": "c1cnc2[nH]c(-c3n[nH]c4ccc(-c5cn[nH]c5)nc34)nc2c1", "note": "[Compound 651, 3-(3H-Imidazo[4,5-b]pyridin-2-yl)-5-(1H-pyrazol-4-yl)-1H-pyrazolo[4,3-b]pyridine]", "values": [{"measurement": "EC50", "result": "> 10", "unit": "µM"}, {"measurement": "inhibition at 10 µM", "result": 0, "unit": "%"}]}
{"molecule": "c1cnc2[nH]c(-c3n[nH]c4ccc(-c5cncc(OC6CCNCC6)c5)nc34)nc2c1", "note": "[Compound 656, 3-(3H-Imidazo[4,5-b]pyridin-2-yl)-5-(5-(piperidin-4-yloxy)pyridin-3-yl)-1H-pyrazolo[4,3-b]pyridine]", "values": [{"measurement": "EC50", "result": 7.6, "unit": "µM"}]}
{"molecule": "Oc1cncc(-c2ccc3[nH]nc(-c4nc5cccnc5[nH]4)c3n2)c1", "note": "[Compound 661, 5-(3-(3H-Imidazo[4,5-b]pyridin-2-yl)-1H-pyrazolo[4,3-b]pyridin-5-yl) pyridin-3-ol]", "values": [{"measurement": "EC50", "result": "> 10", "unit": "µM"}, {"measurement": "inhibition at 10 µM", "result": 27.9, "unit": "%"}]}
{"molecule": "O=C(CC1CCNCC1)Nc1cncc(-c2ccc3[nH]nc(-c4nc5c(-c6ccsc6)ccnc5[nH]4)c3n2)c1", "note": "[Compound 673, 2-(Piperidin-4-yl)-N-(5-(3-(7-(thiophen-3-yl)-3H-imidazo[4,5-b]pyridin-2-yl)-1H-pyrazolo[4,3-b]pyridin-5-yl)pyridin-3-yl)acetamide]", "values": [{"measurement": "EC50", "result": "> 10", "unit": "µM"}, {"measurement": "inhibition at 10 µM", "result": 35.9, "unit": "%"}]}
{"molecule": "Cc1ncc(-c2ccc3[nH]nc(-c4nc5c(-c6ccoc6)ccnc5[nH]4)c3n2)n1C", "note": "[Compound 685, 5-(1,2-Dimethyl-1H-imidazol-5-yl)-3-(7-(furan-3-yl)-3H-imidazo[4,5-b]pyridin-2-yl)-1H-pyrazolo[4,3-b]pyridine]", "values": [{"measurement": "EC50", "result": "> 10", "unit": "µM"}, {"measurement": "inhibition at 10 µM", "result": 24.3, "unit": "%"}]}
{"molecule": "c1cc(-c2ccoc2)c2nc(-c3n[nH]c4ccc(-c5cncc(OCCN6CCCC6)c5)nc34)[nH]c2n1", "note": "[Compound 690, 3-(7-(Furan-3-yl)-3H-imidazo[4,5-b]pyridin-2-yl)-5-(5-(2-(pyrrolidin-1-yl)ethoxy)pyridin-3-yl)-1H-pyrazolo[4,3-b]pyridine]", "values": [{"measurement": "EC50", "result": "> 10", "unit": "µM"}, {"measurement": "inhibition at 10 µM", "result": 42.9, "unit": "%"}]}
